What was measured:
VEGF gene = VEGF gene expression by real-time PCR in adipose tissue-derived mesenchymal stromal cells (ASC); type: cell-based, human; details: 48 hours; for Value of mRNA relative quantification (VEGF): 0 ng/mL = 1.00
Protocol: (§1) Adipose tissue-derived mesenchymal stromal cells extracted by subjecting normal human adipose tissues to an enzyme treatment were cultured using a DME medium (Dulbecco's modified eagle medium manufactured by Gibco, high glucose) including 20% fetal bovine serum (FBS) in a non-treated culture flask (manufactured by FALCON) as primary culture. The primary culture cells right before confluency were recovered by an enzyme treatment, seeded on a non-treated 12-well culture plate (manufactured by Sumitomo Bakelite Co., Ltd.) using the same medium, and cultured until becoming confluent.
After confirming that the cells became confluent, the medium was removed and the cell surface was rinsed with PBS (Dulbecco's phosphate buffered saline manufactured by DS Pharma Biomedical Co., Ltd.).
(§2) After rinsing the cells, the medium was replaced with an FBS-free DME medium or HBSS (Hanks' balanced salt solution manufactured by Sigma-Aldrich Co.)-HEPES. Subsequently, 12 wells were divided into 4 groups each consisting of 3 wells, and the FBS-free DME medium was cultured in a 5% CO2 incubator (Reference example) and HBSS-HEPES was cultured in an incubator (Example). The culture supernatant in each well was recovered immediately after replacement (0 hours) and 3 hours, 6 hours, 24 hours, and 48 hours thereafter.
After recovering the culture supernatant as described above, an RNA extraction solution ISOGEN (Nippon Gene Co., Ltd., No. 319-90211) was added to each well in an amount of 400 microliters and the total RNAs were extracted from the cells in accordance with a conventional method. The precipitate of the total RNAs obtained by using Ethachinmate (Nippon Gene Co., Ltd., No. 312-01791) was dissolved in nuclease-free water. The concentration of the total RNAs was measured using 1.5 microliters of the dissolved RNAs by NanoDrop (Thermo Fisher Scientific). One hundred nanograms of the total RNAs thus obtained were used to synthesize complementary DNA using an iScript cDNA synthesis kit (Bio-Rad Laboratories, Inc., No. 1708891), and the resulting complementary DNA was used for quantifying an expression level of each gene by real-time PCR (Rotor-Gene Q manufactured by QIAGEN).
The synthesized DNA, primers (QuantiTect Primer Assay, QIAGEN) specific for the gene to be detected and quantified, and a real-time PCR agent (RotorGene SYBR Green, QIAGEN) were mixed, and real-time PCR was performed by using the Rotor-Gene Q system (QIAGEN) to amplify fragments of the gene to be detected and quantified. In this operation, primers specific for β-Actin as a housekeeping gene were used for amplification in the same manner, and this amplification curve was used as a reference to relatively calculate a quantitative value of the gene desired to be detected and quantified. […]

VEGF protein = VEGF protein in ASC culture supernatant by QUANTIKINE ELISA; type: cell-based, human; details: 48 hours; for VEGF concentration: ASC culture supernatant, 0 ng/mL gave 199.5
Protocol: as §1, §2
The culture supernatant recovered as described in cell culture and recovery of culture supernatant was passed through a filter having a diameter of 0.22 micrometers to prepare a sample for protein quantification.
Protein quantification of the sample was performed by using the QUANTIKINE ELISA (Human VEGF, FGF-2) kit from R&D Systems, Inc. and a quantitative value of each protein was obtained in accordance with the protocol of the kit.
The rinsed cells were divided into 4 groups each consisting of 3 wells and their culture media were replaced with HBSS-HEPES added with PGE1 (Prostandin manufactured by Maruishi Pharmaceutical. Co., Ltd.) at a concentration of 0 ng/ml, 4 ng/ml, 40 ng/ml, and 400 ng/ml, followed by culturing in an incubator (Example). At 48 hours after the replacement, the culture supernatant was recovered from each well and subjected to protein quantification using QUANTIKINE ELISA Human VEGF (manufactured by R&D Systems, Inc.). […] The complementary DNA was used to relatively quantify the VEGF gene expression level by real-time PCR (Rotor-Gene Q manufactured by QIAGEN).
After rising, three groups were each added with 3 mL, 2 mL, or 1 mL of HBSS (Hanks' balanced salt solution manufactured by Sigma-Aldrich Co.)-HEPES pH7.4 and cultured for 48 hours in an incubator (Example). Subsequently, each culture supernatant was recovered in a 5 mL tube (manufactured by BD Falcon) and the VEGF protein was quantified by using QUANTIKINE ELISA Human VEGF (manufactured by R&D Systems, Inc.). […] Then, the complementary DNA was used to relatively quantify the VEGF gene expression level by real-time PCR (Rotor-Gene Q manufactured by QIAGEN). […]

[1] = Storage stability of freeze-dried culture supernatant (VEGF protein by ELISA); type: physicochemical; details: for Value of VEGF relative quantification at each storage temperature: trehalose 250 mM
Protocol: As was in Example 5, the culture supernatant after 48 hours in the second culturing step was recovered and the culture supernatant obtained by centrifugal separation (740G, 5 minutes) was divided into 2 groups, a no addition group and a group with addition of 250 mM trehalose (manufactured by Hayashibara Co., Ltd.). Subsequently, the culture supernatant was passed through a filtration filter (KURABO INDUSTRIES Ltd.) having a membrane pore diameter of 0.2 micrometers and aliquoted into syringes (Terumo Corp.). The syringes were sealed in sterile bags, frozen in a −80° C. freezer, and then transferred to the inside of the freeze-drying device (Yamato Scientific Co., Ltd.) to perform freeze drying. After the completion of freeze drying, the syringes were sealed with luer caps for syringe (Terumo Corp.). The freeze-dried samples were stored in a sealed state under three temperature conditions of −80° C., 4° C., and 25° for 3 weeks. After 3 weeks, the freeze-dried samples were resuspended in water for injection (manufactured by Otsuka Pharmaceutical Co., Ltd.) and protein quantification was performed using QUANTIKINE ELISA Human VEGF (manufactured by R&D Systems, Inc.). As a quantitative value, a relative quantitative value of the VEGF protein at each storage temperature was calculated by taking a quantitative value of the VEGF protein included in the culture supernatant stored at −80° C. for 3 weeks as a reference.

[2] = ASC, HBSS-HEPES with PGE1 0 to 400 ng/ml

Row | Structure (SMILES) | Value of mRNA relative quantification (VEGF) (VEGF gene; ASC in HBSS-HEPES with PGE1 4 ng/mL) | Value of mRNA relative quantification (VEGF) (VEGF gene; ASC in HBSS-HEPES with PGE1 40 ng/mL) | Value of mRNA relative quantification (VEGF) (VEGF gene; ASC in HBSS-HEPES with PGE1 400 ng/mL) | relative quantitative value of the mRNA expression level (VEGF) (VEGF gene; [2]) | VEGF concentration (VEGF protein; HBSS-HEPES with PGE1 4 ng/mL) [pg/mL] | VEGF concentration (VEGF protein; HBSS-HEPES with PGE1 40 ng/mL) | VEGF concentration (VEGF protein; HBSS-HEPES with PGE1 400 ng/mL) [pg/mL] | protein amount (VEGF) in culture supernatant (VEGF protein; [2]) | Value of VEGF relative quantification at each storage temperature ([1]; freeze-dried culture supernatant stored 3 weeks at 4° C., relative to −80° C.) | Value of VEGF relative quantification at each storage temperature ([1]; freeze-dried culture supernatant stored 3 weeks at 25° C., relative to −80° C.) | Value of VEGF relative quantification at each storage temperature ([1]; freeze-dried culture supernatant stored 3 weeks at −80° C. (reference)) | VEGF protein after storage of freeze-dried culture supernatant ([1]; stored 3 weeks under the environment of 25° C., trehalose final concentration 250 mM)
1 | CCCCC[C@H](O)/C=C/[C@H]1[C@H](O)CC(=O)[C@@H]1CCCCCCC(=O)O [PGE1] | 0.88 | 1.04 | 0.97 | remained substantially constant | 201.8 | 281. 5 pg/mL | 299.0 | tended to increase |  |  |  | 
2 | OC[C@H]1O[C@H](O[C@H]2O[C@H](CO)[C@@H](O)[C@H](O)[C@H]2O)[C@H](O)[C@@H](O)[C@@H]1O [Trehalose, trehalose] |  |  |  |  |  |  |  |  | 0.96 | 0.73 | 1.00 | suppressed the reduction
